Experiment [1] relates to THP-1. As to the kind of experiment: Antiinflammatory activity in LPS-activated PMA-differentiated human THP-1 macrophages assessed as decrease in IL-6 production at 10 uM incubated for 24 hrs in the presence of JTE907 by ELISA coupled qRT-PCR analysis. It is filed as functional, cell-based. (ELISA stands for enzyme-linked immunosorbent assay.)
The subject of experiment [2] is THP-1. Kind of experiment: Antiinflammatory activity in PMA-differentiated human THP-1 macrophages assessed as increase in IL-10 production at 10 uM incubated for 24 hrs in the presence of JTE907 by ELISA coupled qRT-PCR analysis. It is filed as functional, cell-based.
The test system of experiment [3] is THP-1. Kind of experiment: Antiinflammatory activity in human THP-1 monocytes assessed as increase in IL-10 production at 10 uM incubated for 24 hrs by ELISA coupled qRT-PCR analysis. It is filed as functional, cell-based.
Experiment [4] deals with THP-1. As to the kind of experiment: Antiinflammatory against LPS-activated human THP-1 monocytes assessed as decrease in IL-6 production at 10 uM incubated for 24 hrs in the presence of JTE907 by ELISA coupled qRT-PCR analysis. It is filed as functional, cell-based.
For experiment [5], the system named is THP-1. Kind of experiment: Antiinflammatory activity against LPS-activated human THP-1 monocytes assessed as decrease in TNF-alpha production at 10 uM incubated for 24 hrs in the presence of N-(adamantan-1-yl)-4-(pentylamino)-[1,1'-biphenyl]-3-carboxamide by ELISA coupled qRT-PCR analysis. It is filed as functional, cell-based.
The subject of experiment [6] is THP-1. Kind of experiment: Antiinflammatory activity against LPS-activated human THP-1 monocytes assessed as decrease in IL-1beta production at 10 uM incubated for 24 hrs in the presence of N-(adamantan-1-yl)-4-(pentylamino)-[1,1'-biphenyl]-3-carboxamide by ELISA coupled qRT-PCR analysis. It is filed as functional, cell-based.
Experiment [7] concerns THP-1. As to the kind of experiment: Antiinflammatory activity in PMA-differentiated human THP-1 macrophages assessed as reduction in TNF-alpha production at 10 uM incubated for 24 hrs by ELISA coupled qRT-PCR analysis relative to control. It is filed as functional. On the set-up: scale not given: the % may be the effect or the level left.
In experiment [8] the test system is THP-1. Kind of experiment: Antiinflammatory activity in human THP-1 monocytes assessed as increase in IL-4 production at 10 uM incubated for 24 hrs in the presence of JTE907 by ELISA coupled qRT-PCR analysis. It is filed as functional, cell-based.
Experiment [9] deals with THP-1. As to the kind of experiment: Antiinflammatory activity in PMA-differentiated human THP-1 monocytes assessed as increase in IL-10 production at 10 uM incubated for 24 hrs in the presence of N-(adamantan-1-yl)-4-(pentylamino)-[1,1'-biphenyl]-3-carboxamide by ELISA coupled qRT-PCR analysis. It is filed as functional, cell-based.
In experiment [10] the test system is THP-1. Kind of experiment: Antiinflammatory activity against LPS-activated human THP-1 monocytes assessed as increase in IL-10 production at 10 uM incubated for 24 hrs in the presence of N-(adamantan-1-yl)-4-(pentylamino)-[1,1'-biphenyl]-3-carboxamide by ELISA coupled qRT-PCR analysis. It is filed as functional, cell-based.
The test system of experiment [11] is THP-1. As to the kind of experiment: Antiinflammatory activity in PMA-differentiated human THP-1 macrophages assessed as decrease in IFN-gamma production at 10 uM incubated for 24 hrs in the presence of JTE907 by ELISA coupled qRT-PCR analysis. It is filed as functional, cell-based.
Experiment [12] deals with THP-1. As to the kind of experiment: Antiinflammatory activity in human THP-1 monocytes assessed as decrease in IL-6 production at 10 uM incubated for 24 hrs in the presence of N-(adamantan-1-yl)-4-(pentylamino)-[1,1'-biphenyl]-3-carboxamide by ELISA coupled qRT-PCR analysis. It is filed as functional, cell-based.
The test system of experiment [13] is THP-1. As to the kind of experiment: Antiinflammatory activity in PMA-differentiated human THP-1 macrophages assessed as decrease in TNF-alpha production at 10 uM incubated for 24 hrs in the presence of JTE907 by ELISA coupled qRT-PCR analysis. It is filed as functional, cell-based.
For experiment [14], the system named is THP-1. As to the kind of experiment: Antiinflammatory activity against LPS-activated PMA-differentiated human THP-1 monocytes assessed as decrease in IL-6 production at 10 uM incubated for 24 hrs in the presence of N-(adamantan-1-yl)-4-(pentylamino)-[1,1'-biphenyl]-3-carboxamide by ELISA coupled qRT-PCR analysis. It is filed as functional, cell-based.
Experiment [15] relates to THP-1. As to the kind of experiment: Antiinflammatory activity against LPS-activated PMA-differentiated human THP-1 macrophages assessed as decrease in IL-6 production at 10 uM incubated for 24 hrs by ELISA coupled qRT-PCR analysis relative to control. It is filed as functional. On the set-up: scale not given: the % may be the effect or the level left.
The subject of experiment [16] is THP-1. Kind of experiment: Antiinflammatory activity in PMA-differentiated human THP-1 macrophages assessed as reduction in IL-6 production at 1 to 10 uM incubated for 24 hrs by ELISA coupled qRT-PCR analysis relative to control. It is filed as functional. Also noted: scale not given: the % may be the effect or the level left. The note with it: dose 1-10 µM.
Experiment [17] concerns THP-1. Kind of experiment: Antiinflammatory activity against LPS-activated PMA-differentiated human THP-1 macrophages assessed as increase in IL-4 production at 1 to 10 uM incubated for 24 hrs by ELISA coupled qRT-PCR analysis. The settings on record: dose 1-10 µM. It is filed as functional, cell-based.
The test system of experiment [18] is THP-1. As to the kind of experiment: Antiinflammatory activity in PMA-differentiated human THP-1 macrophages assessed as reduction in IFN-gamma production at 1 to 10 uM incubated for 24 hrs by ELISA coupled qRT-PCR analysis relative to control. On the set-up: scale not given: the % may be the effect or the level left. The note with it: dose 1-10 µM. It is filed as functional.

The test system of experiment [19] is THP-1. Kind of experiment: Antiinflammatory activity in human THP-1 monocytes assessed as increase in IL-4 production incubated for 24 hrs by ELISA coupled qRT-PCR analysis. It is filed as functional, cell-based. The settings on record: dose 1-10 µM.
For experiment [20], the system named is THP-1. Kind of experiment: Antiinflammatory against LPS-activated human THP-1 monocytes assessed as decrease in IL-6 production at 1 to 10 uM incubated for 24 hrs in the presence of JTE907 by ELISA coupled qRT-PCR analysis. It is filed as functional, cell-based. The note with it: dose 1-10 µM.
The subject of experiment [21] is THP-1. Kind of experiment: Antiinflammatory activity in human THP-1 monocytes assessed as decrease in IL-6 production incubated for 24 hrs by ELISA coupled qRT-PCR analysis. The note with it: dose 1-10 µM. It is filed as functional, cell-based.
The test system of experiment [22] is THP-1. Kind of experiment: Antiinflammatory activity in human THP-1 monocytes assessed as decrease in IFN-gamma production incubated for 24 hrs by ELISA coupled qRT-PCR analysis. It is filed as functional, cell-based. The settings on record: dose 1-10 µM.
In experiment [23] the test system is THP-1. Kind of experiment: Antiinflammatory activity in human THP-1 monocytes assessed as decrease in TNF-alpha production at 1 to 10 uM incubated for 24 hrs in the presence of JTE907 by ELISA coupled qRT-PCR analysis. It is filed as functional, cell-based. The note with it: dose 1-10 µM.
The test system of experiment [24] is THP-1. As to the kind of experiment: Antiinflammatory activity in PMA-differentiated human THP-1 macrophages assessed as increase in IL-4 production at 1 to 10 uM incubated for 24 hrs by ELISA coupled qRT-PCR analysis. It is filed as functional, cell-based. The settings on record: dose 1-10 µM.
In experiment [25] the test system is THP-1. Kind of experiment: Antiinflammatory activity in PMA-differentiated human THP-1 macrophages assessed as decrease in IFN-gamma production at 1 to 10 uM incubated for 24 hrs in the presence of JTE907 by ELISA coupled qRT-PCR analysis. The settings on record: dose 1-10 µM. It is filed as functional, cell-based.
For experiment [26], the system named is THP-1. As to the kind of experiment: Antiinflammatory against LPS-activated human THP-1 monocytes assessed as decrease in IL-1beta production at 1 to 10 uM incubated for 24 hrs in the presence of JTE907 by ELISA coupled qRT-PCR analysis. It is filed as functional, cell-based. The settings on record: dose 1-10 µM.
Experiment [27] has as its system THP-1. As to the kind of experiment: Antiinflammatory activity in PMA-differentiated human THP-1 macrophages assessed as decrease in TNF-alpha production at 1 to 10 uM incubated for 24 hrs in the presence of JTE907 by ELISA coupled qRT-PCR analysis. It is filed as functional, cell-based. The settings on record: dose 1-10 µM.
In experiment [28] the test system is THP-1. Kind of experiment: Antiinflammatory activity in LPS-activated PMA-differentiated human THP-1 macrophages assessed as decrease in TNF-alpha production at 1 to 10 uM incubated for 24 hrs in the presence of JTE907 by ELISA coupled qRT-PCR analysis. It is filed as functional, cell-based. The note with it: dose 1-10 µM.

Drawing on ChEMBL document CHEMBL5321210, “N-adamantyl-anthranil amide derivatives: New selective ligands for the cannabinoid receptor subtype 2 (CB2R)” (Eur J Med Chem, 2023), this text covers Activity for two molecules.

Activity calls are given as the source filed them. The calls are words filed in the database; no cut-off is given here.

`O=C(NC1CCCCC1)c1cn(CCN2CCOCC2)c2cc(Cl)ccc2c1=O`: the outcome in the experiment with THP-1 [1], with THP-1 [2], in the experiment on THP-1 [4], in the experiment with THP-1 [5], with THP-1 [6] and in the experiment on THP-1 [8] was inactive. The outcome in the experiment with THP-1 [9], with THP-1 [10], in the experiment with THP-1 [11], with THP-1 [12], in the experiment on THP-1 [13] and in the experiment with THP-1 [14] was inactive. Also, the outcome in the experiment with THP-1 [3] was Active. The Activity with THP-1 [7] is reported as 50%; in the experiment with THP-1 [15], 70%.

`CCCCCNc1ccccc1C(=O)NC12CC3CC(CC(C3)C1)C2`: the Activity with THP-1 [16] was 50%; with THP-1 [18], 50%; with THP-1 [19], “Dose-Dependent Effect”; with THP-1 [21], “Dose-Dependent Effect”; in the experiment on THP-1 [22], “Dose-Dependent Effect”. Also, the outcome in the experiment with THP-1 [17] and with THP-1 [24] was Active. In addition, the result in the experiment with THP-1 [20], in the experiment on THP-1 [23], in the experiment on THP-1 [25], in the experiment with THP-1 [26], in the experiment on THP-1 [27] and with THP-1 [28] was inactive.
